# Assay results as given in publication PMC11057141, “Untangling the mess of CGRP levels as a migraine biomarker: an in-depth literature review and analysis of our experimental experience” (The Journal of Headache and Pain, 2024).
# No end group written: not given here.
# Experiments:
# CGRP [1] = conditions: mean ± SEM, cited from earlier work
# CGRP [2] = system: CGRP; set-up: method as in PMID 16472331; conditions: MWA, mean ± SEM, cited from earlier work
# CGRP [3] = system: CGRP; set-up: method as in PMID 15689192; conditions: MWA, ictal, cited from earlier work
# CGRP [4] = system: CGRP; set-up: method as in PMID 8388188; conditions: 8 migraineurs, ictal, subcutaneous sumatriptan, mean ± SE; pre-treatment 60 ± 8; cited from earlier work
# [5] = infused in humans; cited from earlier work
# Excerpt: The relevance of the peptide goes beyond its use as a therapeutical target, having been proposed as a biomarker in migraine.
# [6] = Long-term storage of serum at -80°C, sandwich ELISA; format: in vitro ADME; conditions: human serum
# Description: (§1) We tested 4 different ELISA kit references with serum samples, 2 based on competitive ELISA (Biorbyt, UK, ref: orb438605; BMA Biomedicals, Switzerland, ref: S-1198), specifically designed for the detection of total-CGRP, and 2 based on ELISA sandwich (Abbexa, UK, ref: abx257902; CUSABIO, China, ref: CSB-E08210h), designed for the detection of alpha and beta-CGRP, respectively. All 4 of these products were assayed multiple times (at least 4 for each kit reference) to analyse the optimal dilutions of the samples, their reproducibility and their reported concentrations. All the procedures were carried out strictly following the manufacturer’s instructions of use of their products, they were performed by the same researcher, using the same equipment, and in the same facilities. […] All the samples were measured in duplicate, obtained from morning blood extractions, 9–12 am, from patients in a fast of at least 12h. These samples were let to clot for 10–15 min, centrifuged at 3500 rpm for 10 min and then immediately stored at -80°C until assayed. A standard curve was generated for every single batch, and they were calculated using a 4-parameter logistic (4-PL) regression with r^2 > 0.999.
# We assayed 11 consecutive samples from previous works (36.4% male; age range: 26–65) that had been stored at -80°C for more than 6 months and which had been assayed altogether before being stored for a month and before reaching this time point.
# [7] = Influence of sample processing time: serum kept at 4°C before freezing at -80°C, sandwich ELISA; format: in vitro ADME, human
# Description: as §1
# We recruited 6 individuals without history of migraine and subjective absence of headache at the day of the sampling (50% male; age range: 24–65 years). […] The blood was then let to clot for 10 min at room temperature, then centrifuged at 3500 rpm for 10 min to obtain serum. Serum was divided into 4 tubes. First one was immediately stored at -80°C, the other three were kept in the refrigerator at 4°C for, 2, 4 and 24 h respectively before frozen. None of the samples were added peptidase inhibitor. These samples were measured by triplicate.
# [8] = frozen samples; cited from earlier work
# Excerpt: Another point recurrently mentioned in the literature is the long-term stability of the molecules when frozen. […] This opens up the question about whether c ...
# CGRP [9] = conditions: 32 MWA; exact values not displayed; cited from earlier work
# Excerpt: Table 1 Charasteristics of the studies measuring CGRP in migraine patients | column: Main findings relate to CGRP
# CGRP [10] = conditions: cited from earlier work; for plasma CGRP 4 months after treatment cessation (V2), median (IQR) / plasma CGRP at last injection (V1), median (IQR): EM and CM patients, controls 32.6(21.3–44.6)
# Excerpt: Table 1 Charasteristics of the studies measuring CGRP in migraine patients | column: Concentrations
# [11] = EM without aura, mean ± SD, T0 86.9 ± 24.1
# [12] = healthy controls, mean ± SD, T0 87.9 ± 21.3
molecule,measurement,setting,value
"O=[N+]([O-])OCC(CO[N+](=O)[O-])O[N+](=O)[O-] [nitroglyceri, nitroglycerin]","plasma CGRP, controls T1",CGRP [1]; basal 15.1 ± 2.0,17.5 pmol/L
same,"plasma CGRP, controls T2",CGRP [1]; basal 15.1 ± 2.0,16.5 pmol/L
same,"plasma CGRP, controls T3",CGRP [1]; basal 15.1 ± 2.0,15.3 pmol/L
same,"plasma CGRP, migraineurs T1",CGRP [1]; basal 18.4 ± 1.7,19.7 pmol/L
same,"plasma CGRP, migraineurs T2",CGRP [1]; basal 18.4 ± 1.7,22.2 pmol/L
same,"plasma CGRP, migraineurs T3",CGRP [1]; basal 18.4 ± 1.7,21.0 pmol/L
CN(C)CCc1c[nH]c2ccc(Cn3cncn3)cc12 [rizatriptan],"plasma (JV) CGRP, non-responders 1 h",CGRP [2]; before rizatriptan 7.4 ± 2.4,7.6 pmol/L
same,"plasma (JV) CGRP, non-responders 2 h",CGRP [2]; before rizatriptan 7.4 ± 2.4,7.9 pmol/L
same,"plasma (JV) CGRP, non-responders 4 h",CGRP [2]; before rizatriptan 7.4 ± 2.4,7.7 pmol/L
same,"plasma (JV) CGRP, non-responders 6 h",CGRP [2]; before rizatriptan 7.4 ± 2.4,7.3 pmol/L
same,"plasma (JV) CGRP, non-responders 12 h",CGRP [2]; before rizatriptan 7.4 ± 2.4,7.2 pmol/L
same,"plasma (JV) CGRP, responders 1 h",CGRP [2]; before rizatriptan 12.2 ± 3.2,7.6 pmol/L
same,"plasma (JV) CGRP, responders 2 h",CGRP [2]; before rizatriptan 12.2 ± 3.2,3.4 pmol/L
same,"plasma (JV) CGRP, responders 4 h",CGRP [2]; before rizatriptan 12.2 ± 3.2,2.6 pmol/L
same,"plasma (JV) CGRP, responders 6 h",CGRP [2]; before rizatriptan 12.2 ± 3.2,2.3 pmol/L
same,"plasma (JV) CGRP, responders 12 h",CGRP [2]; before rizatriptan 12.2 ± 3.2,2.1 pmol/L
CNS(=O)(=O)Cc1ccc2[nH]cc(CCN(C)C)c2c1 [sumatriptan],"plasma CGRP 1 h after sumatriptan, responders","CGRP [3]; n = 6, mean ± SEM, before 16.9 ± 2.8",14.7 pmol/L
same,"plasma CGRP 1 h after sumatriptan, non-responders","CGRP [3]; n = 13, mean ± SEM, before 24.3 ± 2.5",23.8 pmol/L
same,plasma (JV) CGRP post-treatment,CGRP [4],40 pmol/L
Calcitonin gene-related peptide [CGRP],effect of infusion in humans,[5],induction of migraine-like headaches
same,effect of storage at -80°C of more than 6 months on CGRP levels,[6],decrease
same,CGRP content in serum stored at 4°C,[7]; first 24 h at 4°C after clotting and immediate centrifugation,preserved
same,effect of frozen storage of 8 months on CGRP concentration,[8],significantly decrease
"Pituitary adenylate cyclase activating peptide-38 (HSDGIFTDSYSRYRKQMAVKKYLAAVLGKRYKQRVKNK; ends and bridges not checked; UniProt P18509 132-169, looked up) [PACAP38]",effect of PACAP38 infusion on CGRP concentrations,CGRP [9],PACAP38 infusion do not causes changes in CGRP concentrations
"Vasoactive intestinal peptide (HSDAVFTDNYTRLRKQMAVKKYLNSILN; ends and bridges not checked; UniProt P01282 125-152, looked up) [VIP]","plasma CGRP, VIP infusion Migraine T30",CGRP [10]; [11],94.2 pg/mL
same,"plasma CGRP, VIP infusion Migraine T60",CGRP [10]; [11],95.1 pg/mL
same,"plasma CGRP, VIP infusion Migraine T90",CGRP [10]; [11],87.5 pg/mL
same,"plasma CGRP, VIP infusion Migraine T120",CGRP [10]; [11],88.7 pg/mL
same,"plasma CGRP, VIP infusion Migraine T150",CGRP [10]; [11],85.1 pg/mL
same,"plasma CGRP, VIP infusion Migraine T180",CGRP [10]; [11],83.3 pg/mL
same,"plasma CGRP, VIP infusion HC T30",CGRP [10]; [12],102.1 pg/mL
same,"plasma CGRP, VIP infusion HC T60",CGRP [10]; [12],109.3 pg/mL
same,"plasma CGRP, VIP infusion HC T90",CGRP [10]; [12],104.1 pg/mL
same,"plasma CGRP, VIP infusion HC T120",CGRP [10]; [12],110.1 pg/mL
same,"plasma CGRP, VIP infusion HC T150",CGRP [10]; [12],97.8 pg/mL
same,"plasma CGRP, VIP infusion HC T180",CGRP [10]; [12],98.2 pg/mL
"beta-CGRP: endogenous neuropeptide encoded in CALCB, differs from alpha-CGRP in 3 of 37 amino acids","serum concentration, measured before one month of storage at -80°C","[6]; 11 samples, ELISA Abbexa (alpha) / CUSABIO (beta), mean ± SD",4.9 ± 2.0 pg/mL
same,serum concentration after more than 6 months of storage at -80°C,"[6]; same 11 samples, ELISA Abbexa (alpha) / CUSABIO (beta), mean ± SD, p < 0.01 vs first measurement",3.0 ± 1.3 pg/mL
same,serum concentration after 2 h at 4°C,"[7]; human serum, no peptidase inhibitor, 2 h at 4°C before -80°C, ELISA Abbexa (alpha) / CUSABIO (beta), mean ± SD, 6 subjects, triplicate",4.9 ± 1.7 pg/mL
same,serum concentration after 4 h at 4°C,"[7]; human serum, no peptidase inhibitor, 4 h at 4°C before -80°C, ELISA Abbexa (alpha) / CUSABIO (beta), mean ± SD, 6 subjects, triplicate",4.7 ± 1.5 pg/mL
same,serum concentration after 24 h at 4°C,"[7]; human serum, no peptidase inhibitor, 24 h at 4°C before -80°C, ELISA Abbexa (alpha) / CUSABIO (beta), mean ± SD, 6 subjects, triplicate",4.4 ± 1.8 pg/mL
same,"serum concentration, deep frozen right away","[7]; human serum, no peptidase inhibitor, clot 10 min RT, 3500 rpm 10 min, immediately -80°C, ELISA Abbexa (alpha) / CUSABIO (beta), mean ± SD, 6 subjects, triplicate",4.6 ± 1.6 pg/mL
"Galcanezumab: anti-CGRP monoclonal antibody (antibody, chains of the INN, looked up, V domains shown) VH: QVQLVQSGAEVKKPGSSVKVSCKASGYTFGNYWMQWVRQAPGQGLEWMGAIYEGTGKTVYIQKFADRVTITADKSTSTAYMELSSLRSEDTAVYYCARLSDYVSGFGYWGQGTTVTVSS VL: DIQMTQSPSSLSASVGDRVTITCRASKDISKYLNWYQQKPGKAPKLLIYYTSGYHSGVPSRFSGSGSGTDFTLTISSLQPEDFATYYCQQGDALPPTFGGGTKVEIK","plasma CGRP 4 months after treatment cessation (V2), median (IQR)",CGRP [10],1853.2 pg/mL
same,"plasma CGRP at last injection (V1), median (IQR)",CGRP [10],5439.3 pg/mL
"Fremanezumab: anti-CGRP monoclonal antibody (antibody, chains of the INN, looked up, V domains shown) VH: EVQLVESGGGLVQPGGSLRLSCAASGFTFSNYWISWVRQAPGKGLEWVAEIRSESDASATHYAEAVKGRFTISRDNAKNSLYLQMNSLRAEDTAVYYCLAYFDYGLAIQNYWGQGTLVTVSS VL: EIVLTQSPATLSLSPGERATLSCKASKRVTTYVSWYQQKPGQAPRLLIYGASNRYLGIPARFSGSGSGTDFTLTISSLEPEDFAVYYCSQSYNYPYTFGQGTKLEIK","plasma CGRP 4 months after treatment cessation (V2), median (IQR)",CGRP [10],34.3 pg/mL
same,"plasma CGRP at last injection (V1), median (IQR)",CGRP [10],29.4 pg/mL
"Erenumab: anti-CGRP(-receptor) monoclonal antibody (antibody, chains of the INN, looked up, V domains shown) VH: QVQLVESGGGVVQPGRSLRLSCAASGFTFSSFGMHWVRQAPGKGLEWVAVISFDGSIKYSVDSVKGRFTISRDNSKNTLFLQMNSLRAEDTAVYYCARDRLNYYDSSGYYHYKYYGMAVWGQGTTVTVSS VL: QSVLTQPPSVSAAPGQKVTISCSGSSSNIGNNYVSWYQQLPGTAPKLLIYDNNKRPSGIPDRFSGSKSGTSTTLGITGLQTGDEADYYCGTWDSRLSAVVFGGGTKLTVL","serum CGRP at T1, median (IQR)","CGRP [10]; 94 erenumab treated EM and CM, basal 14.1 (8.2–33.9)",13.8 pg/mL
same,"plasma CGRP 4 months after treatment cessation (V2), median (IQR)",CGRP [10],30.3 pg/mL
same,"plasma CGRP at last injection (V1), median (IQR)",CGRP [10],31.2 pg/mL
same,"salivary CGRP at M3, EM without depression","CGRP [10]; mean ± SD, basal 198.90 ± 27.89",235.05 pg/mL
same,"salivary CGRP at M3, CM with depression","CGRP [10]; n = 6, mean ± SD, basal 460.69 ± 57.24",446.99 pg/mL
same,"salivary CGRP at M3, CM without depression","CGRP [10]; n = 10, mean ± SD, basal 194.34 ± 43.75",256.34 pg/mL
